Test results: ChEMBL document CHEMBL1255349, “Comparison of the efficacies of oral beta-lactams in selection of Haemophilus influenzae transformants with mutated ftsI genes” (2008)
≈ marks a conversion by molar mass, not a printed value.

How the values were obtained:
Type in all cases: functional
[1] = system: Haemophilus influenzae; test: Antimicrobial activity against beta lactamase-nonproducing ampicillin-resistant Haemophilus influenzae MSC06663 isolate harboring Met377Ile, Ser385Thr and Asn526Lys mutations in penicillin-binding protein 3 by broth dilution method
[2] = system: Haemophilus influenzae; test: Antimicrobial activity against rifampin-resistant Haemophilus influenzae Rd clone by broth dilution method
[3] = system: Haemophilus influenzae; test: Antimicrobial activity against beta lactamase-nonproducing ampicillin-resistant Haemophilus influenzae MSC06647 isolate harboring Asn526Lys mutation in penicillin-binding protein 3 by broth dilution method

## C=CC1=C(C(=O)O)N2C(=O)[C@@H](NC(=O)/C(=N\O)c3csc(N)n3)[C@H]2SC1 [CEFDINIR]
[1]
  MIC: 2 µg/mL (≈ 5.06 µM)
[2]
  MIC: 0.25 µg/mL (≈ 0.632 µM)
[3]
  MIC: 1 µg/mL (≈ 2.53 µM)

## CC/C=C(\C(=O)N[C@@H]1C(=O)N2C(C(=O)O)=C(COC(N)=O)CS[C@H]12)c1csc(N)n1 [CEFCAPENE]
[1]
  MIC: 2 µg/mL (≈ 4.41 µM)
[2]
  MIC: 0.008 µg/mL (≈ 0.0176 µM)
[3]
  MIC: 0.25 µg/mL (≈ 0.551 µM)

## CO/N=C(\C(=O)N[C@@H]1C(=O)N2C(C(=O)OCOC(=O)C(C)(C)C)=C(/C=C\c3scnc3C)CS[C@H]12)c1csc(N)n1 [CEFDITOREN PIVOXIL]
[1]
  MIC: 0.5 µg/mL (≈ 0.805 µM)
[2]
  MIC: 0.008 µg/mL (≈ 0.0129 µM)
[3]
  MIC: 0.06 µg/mL (≈ 0.0967 µM)

## CC1(C)S[C@@H]2[C@H](NC(=O)[C@H](N)c3ccccc3)C(=O)N2[C@H]1C(=O)O [AMPICILLIN]
[1]
  MIC: 1 µg/mL (≈ 2.86 µM)
[2]
  MIC: 0.25 µg/mL (≈ 0.715 µM)
[3]
  MIC: 2 µg/mL (≈ 5.72 µM)

## CC=CC1=C(C(=O)O)N2C(=O)[C@@H](NC(=O)[C@H](N)c3ccc(O)cc3)[C@H]2SC1 [CEFPROZIL]
[1]
  MIC: 4 µg/mL (≈ 10.3 µM)
[2]
  MIC: 2 µg/mL (≈ 5.14 µM)
[3]
  MIC: 4 µg/mL (≈ 10.3 µM)

## CO/N=C(\C(=O)N[C@@H]1C(=O)N2C(C(=O)O)=C(COC(N)=O)CS[C@H]12)c1ccco1 [CEFUROXIME]
[1]
  MIC: 2 µg/mL (≈ 4.71 µM)
[2]
  MIC: 0.5 µg/mL (≈ 1.18 µM)
[3]
  MIC: 2 µg/mL (≈ 4.71 µM)

## C[C@@H](O)[C@H]1C(=O)N2C(C(=O)O)=C(SC3CN(C4=NCCS4)C3)[C@H](C)[C@H]12 [TEBIPENEM]
[1]
  MIC: 0.25 µg/mL (≈ 0.652 µM)
[2]
  MIC: 0.06 µg/mL (≈ 0.156 µM)
[3]
  MIC: 1 µg/mL (≈ 2.61 µM)

## CC1(C)S[C@@H]2[C@H](NC(=O)[C@H](N)c3ccc(O)cc3)C(=O)N2[C@H]1C(=O)O [AMOXICILLIN]
[1]
  MIC: 1 µg/mL (≈ 2.74 µM)
[2]
  MIC: 0.5 µg/mL (≈ 1.37 µM)
[3]
  MIC: 4 µg/mL (≈ 10.9 µM)

## COCC1=C(C(=O)O)N2C(=O)[C@@H](NC(=O)/C(=N\OC)c3csc(N)n3)[C@H]2SC1 [CEFPODOXIME]
[1]
  MIC: 8 µg/mL (≈ 18.7 µM)
[2]
  MIC: 0.03 µg/mL (≈ 0.0702 µM)
[3]
  MIC: 1 µg/mL (≈ 2.34 µM)
